Our source for the Rating values is patent EP0475392B1, “Herbicidal composition” (ISHIHARA SANGYO KAISHA, Ltd., priority 1990, dated 1992).

For this assay, the system named is Digitaria sanguinalis. As to the kind of experiment: Test Example 1 (Foliage Treatment Test), herbicidal effect by visual observation. It is filed as in vivo. Particulars: foliar application at six-leaf stage, 27 days after treatment. From the text:
Upland soil was placed in 1/10,000-are (are (a) = 100 m²) pots and sown with Digitaria sanguinalis. When the plants reached the six-leaf stage, a predetermined amount of each herbicidal composition which had been diluted with 10 ℓ, per are, of water and further admixed with 0.2 % (v/v) of a spreader (Shin Rino®: manufactured by Nihon Nohyaku Co., Ltd.) was foliarly applied on the plants using a small spray gun. 27 days after the foliage treatment application, the herbicidal effect of the herbicidal composition was examined through visual observation according to the following evaluation criteria.

Structures can show the parent of a compound that is named as a salt.

Regarding `COc1cc(OC)nc(NC(=O)NS(=O)(=O)c2ncccc2C(F)(F)F)n1` [Compound A, 1-(4,6-dimethoxy-pyrimidin-2-yl)-3-(3-trifluoromethyl-2-pyridylsulfonyl)urea], the Rating is recorded as 2 (20 to 29) (0.25 g/a active ingredient), 3 (30 to 39) (0.5 g/a active ingredient) and 3 (30 to 39) (1 g/a active ingredient).
With `O=C(O)CNCP(=O)(O)O` [Isopropylamine salt of Compound B, isopropylamine salt of N-(phosphonomethyl)glycine, reference compound], the Rating is 4 (40 to 49) (2.5 g/a active ingredient) and 6 (60 to 69) (5 g/a active ingredient).
